# Measured values published in EPA's ToxValDB 9.5 (doi:10.2903/j.efsa.2014.3524).
# Assays:
# Rattus norvegicus = conditions: acute; oral; mortality
# Bird = conditions: oral, mortality; for LD50: acute, unspecified; for LC50: short-term, feed
Structure (SMILES),LD50 (Rattus norvegicus) [mg/kg],LD50 (Bird) [mg/kg],LC50 (Bird) [mg/kg]
"CCC=CC=CCCCCCCOC(C)=O (stereo in doubt) [(7Z,9E)-Dodeca-7,9-dienyl acetate]",> 5000,–,–
"C/C=C/C=C/CCCCCCCO [(8E,10E)-8,10-Dodecadien-1-ol]",> 5000,> 2050,–
CCC/C=C/CCCCCCCOC(C)=O [(E)-Dodec-8-enyl acetate],> 5000,–,–
CCCC/C=C\CCCCCCCCOC(C)=O [(Z)-9-Tetradecenyl acetate],> 5000,–,–
CCCC/C=C\CCCCCCCCCC=O [(Z)-11-Hexadecenal],> 5000,> 2250,> 5620
CC/C=C\CCCCCCCCOC(C)=O [(Z)-Dodec-9-enyl acetate],> 5000,–,–
CC/C=C\CCCCCCCCCCOC(C)=O [(Z)-Tetradec-11-enyl acetate],> 5000,–,–
"CCCC/C=C/CC/C=C\CCCCCCOC(C)=O [Hexadeca-7,11-dien-1-yl acetate (Z,E)-]",> 5000,> 2250,> 5620
